Results taken from patent US12497392B2, “EP300/CBP inhibitor” (HINOVA PHARMACEUTICALS INC., priority 2019, dated 2025).
Where two headings read alike, the source gives them in different places.

Experiments:
CBP BRD = CBP BRD (Homo sapiens (Human), UniProt Q92793); assay: CBP AlphaScreen bromodomain (BRD) binding test
Description: (§1) CBP and EP300AlphaScreen Test:
(§2) • 1. Prepare 1× concentration of test buffer • 2. Preparation of compound
(§3) The compound was firstly diluted in a ratio of 1:1000 relative to the final concentration using a Precision automatic sampler (by 3× gradient dilution method): • 1) 50 μL of compound solution with a storage concentration of 10 mM was transferred to A2 well of a 96-well plate using an Echo automatic sampler. • 2) 30 μL of DMSO was transferred to well A1, and wells A3 to A12 with Precision™. • 3) 15 μL solution was transferred from A2 to A3 by Precision, and this operation was sequentially repeated until 15 μL solution was transferred from well A10 to well A11. Thus, a 1:3 gradient dilution was completed. • 4) The compound plate was centrifuged at a speed of 1000 r/min for one minute. • 3. Preparation of test plate
(§4) 20 nL of solution was transferred from each concentration well of the compound plate to the test plate using an Echo automatic sampler: from well A1 of the preparation plate to wells A1 and A2 of the test plate, and from well A2 of the preparation plate to wells A3 and A4 of the test plate. • 4. Binding test of bromodomain (BRD) • 1) Preparation of 2-fold solution of protein and polypeptide
(§5) The protein and polypeptide were dissolved in a 1× concentration of detection buffer. • 2) 10 μL of protein and polypeptide solution was transferred to each well in columns 3 to 24 in the test plate, and 10 μL of 1× test buffer was transferred to wells in columns 1 to 2 in the test plate as negative control. • 3) The test plate was centrifuged at a speed of 1000 r/min for one minute. • 4) The test plate was incubated at room temperature for 15 min. • 5) A 2-fold receptor and donor solution was prepared by dissolving acceptor and donor beads with one-fold test buffer. • 6) 2-fold receptor and donor solutions were transferred to the test plate.
(§6) 15 μL of acceptor and donor solution was added and light was avoided. • 7) The test plate was centrifuged at a speed of 1000 r/min for one minute and then incubated at room temperature for 60 min. • 5. The Endpoints were Read in EnSpire and Alpha Modes. • 6. Curve fitting
(§7) The experimental data was entered into an Excel document and the inhibition rate Inh % was calculated using equation (1): Inh %=(Max−Signal)/(Max−Min)×100 Equation (1): wherein, Max: control containing DMSO, Min: low control containing DMSO,
(§8) The obtained data were entered into the XL-Fit software, and the IC50 value was calculated using equation (2): Y=Bottom+(Top−Bottom)/(1+10^((Log IC50−X)×Hill Slope)) Equation (2): II. Experimental Results

EP300 BRD = EP300 BRD (Homo sapiens (Human), UniProt Q09472); assay: EP300 AlphaScreen bromodomain (BRD) binding test
Sequence of EP300 BRD (Q09472 1049-1156): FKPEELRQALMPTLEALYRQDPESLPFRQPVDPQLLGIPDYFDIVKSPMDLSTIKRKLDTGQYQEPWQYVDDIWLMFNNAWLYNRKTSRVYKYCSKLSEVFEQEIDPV
Description: as §1, §2, §3, §4, §5, §6, §7, §8

CWR22RV1 cells [1] = assay: Proliferation of prostate cancer CWR22RV1 cells (CCK-8, 6 days); format: cell-based
Description: (§9) • (1) CWR22RV1 prostate cancer cells were subcultured in cell culture medium, and well-grown cells were inoculated into 96-well plates with 80 μL per well and 1500 cells per well, and then the plate was cultured overnight at 37° C. in a 5% CO2 incubator. • (2) Drug was prepared as 30 mM of stock solution with dimethylsulfoxide (DMSO). Prior to use, the stock solution was diluted in a ratio of 1:3 with DMSO and then further diluted in a ratio of 1:3 to obtain 9 gradient concentrations. Each concentration of compound was diluted in a ratio of 1:200 with culture medium (to ensure the concentration of DMSO in the culture system was 0.1%). Two wells were set for each concentration. 20 μL of diluted compound solution was added to the cell culture well (with a final concentration of 10 μM, 3.3 μM, 1.1 μM, etc.), and then the plate was gently shaken to mix well. In addition, three negative control wells containing only cells and three blank control wells containing only culture medium (6 wells being each added with DMSO diluted in a ratio of 1:200 using 20 μL of culture medium) were included. 2. Test Results: • (1) After the plate was cultured for 6 days, 10 μL of CCK-8 was added to each well, and then the plate was continually cultured in a 5% CO2 incubator at 37° C. for 2.5 h. • (2) The absorbance (OD value) was measured at 450 nm with a microplate reader. • (3) Data were analyzed using the Dose-response-inhibition equation in the software GraphPad Prisms 6 to obtain IC50 values. 3. Experimental Results

VCAP = assay: Proliferation of VCAP prostate cancer cells (CCK-8); format: cell-based; conditions: prostate cancer cell line VCAP, read-out: IC50 against VCAP
Description: as §9
(§10) Using the same method as in Example 2, CWR22RV1 cells were replaced with tumor cells in Table 3, and for the inhibitory activities against these tumor cells, the IC50 values (nM) of the compounds according to the present invention were tested and calculated.

LNCAP-AR = assay: Proliferation of LNCAP-AR prostate cancer cells (CCK-8); format: cell-based; conditions: prostate cancer cell line LNCAP-AR; read-out: IC50 against LNCAP-AR
Description: as §9, §10

LNCAP = assay: Proliferation of LNCAP prostate cancer cells (CCK-8); format: cell-based; conditions: prostate cancer cell line LNCAP, read-out: IC50 against LNCAP
Description: as §9, §10

MOLM-16 = assay: Proliferation of MOLM-16 leukemia cells (CCK-8); format: cell-based; conditions: leukemia cell line MOLM-16, read-out: IC50 against MOLM-16
Description: as §9, §10

MCF-7 = assay: Proliferation of MCF-7 breast cancer cells (CCK-8); format: cell-based; conditions: breast cancer cell line MCF-7, read-out: IC50 against MCF-7
Description: as §9, §10

OPM-2 = assay: Proliferation of OPM-2 multiple myeloma cells (CCK-8); format: cell-based; conditions: multiple myeloma cell line OPM-2, read-out: IC50 against OPM-2
Description: as §9, §10

CWR22RV1 cells [2] = assay: Combination with CDK4/6 inhibitor palbociclib, proliferation of CWR22RV1 prostate cancer cells; format: cell-based; conditions: for IC50: read-out: IC50 against CWR22RV1 cells
Description: (§11) Prior to use, the stock solution was diluted in a ratio of 1:3 with DMSO and then further diluted in a ratio of 1:3 to obtain 9 gradient concentrations. Each concentration of compound was diluted in a ratio of 1:200 with culture medium (to ensure the concentration of DMSO in the culture system was 0.1%). Two wells were set for each concentration. 20 μL of diluted compound solution was added to the cell culture well (with a final concentration of 10 μM, 3.3 μM, 1.1 μM, etc.); the stock solution of palbociclib was diluted with the culture medium as 500 nM, 150 nM, 50 nM, 5 nM, respectively, and then 20 μL of diluted palbociclib solution was added to the cell culture well ([…]). The plate was gently shaken to mix well. In addition, three negative control wells containing only cells and three blank control wells containing only culture medium (6 wells being each added with DMSO diluted in a ratio of 1:200 using 20 μL of culture medium) were included. 2. Test Results: • (1) After the plate was cultured for 6 days, 10 μL of CCK-8 was added to each well, and then the plate was continually cultured in a 5% CO2 incubator at 37° C. for 2.5 h. • (2) The absorbance (OD value) was measured at 450 nm with a microplate reader. • (3) Data were analyzed using the Dose-response-inhibition equation in the software GraphPad Prisms 6 to obtain IC50 values. 3. Experimental Results

MCF-7 cells = assay: Combination with CDK4/6 inhibitor palbociclib, proliferation of MCF-7 breast cancer cells; format: cell-based; conditions: for IC50: Homo sapiens, read-out: IC50 against MCF-7 cells
Description: as §11
Using the same method as in Example 4, CWR22RV1 cells were replaced with MCF-7 cells, and for the inhibitory activities against the proliferation of MCF-7 cells, the IC50 values (nM) of the compounds according to the present invention, palbociclib, and the combination of the compound according to the present invention and palbociclib were tested and calculated.

[3] = CWR22Rv1, 144 h, 6 days, CCK-8, class symbols, read-out: IC50 against CWR22RV1 cells
[4] = compound 172 + palbociclib, in words

Sequence of CBP BRD (Q92793 1085-1192): as the sequence (Q09472 1049-1156) above, with S47N, I73V, Y93F, S98A counted along it

| Molecule | IC50 (CBP BRD) [nM] | IC50 (EP300 BRD) [nM] | IC50 (CWR22RV1 cells [1]; [3]) [nM] | IC50 (VCAP; Homo sapiens) [nM] | IC50 (LNCAP-AR) [nM] | IC50 (LNCAP; Homo sapiens) [nM] | IC50 (MOLM-16; MOLM16) [nM] | IC50 (MCF-7; Homo sapiens, MCF7) [nM] | IC50 (OPM-2; Homo sapiens) [nM] | other results |
| --- | --- | --- | --- | --- | --- | --- | --- | --- | --- | --- |
| CO[C@H]1CC[C@H](n2c([C@@H]3CCOC(=O)N3c3ccc(Cl)c(F)c3)nc3cc(-c4c(C)noc4C)ccc32)CC1 [Compound 117, (S)-3-(3-fluoro-4-chlorophenyl)-4-(5-(3,5-dimethylisoxazol-4-yl)-1-((trans)-4-methoxycyclohexyl)-1H-benzo[d]imidazol-2-yl)-1,3-oxazinane-2-one] | 0.71 | 0.73 | < 500 | < 500 | < 500 | < 500 | < 500 | < 500 | < 500 | IC50 (CWR22RV1 cells [1]; CWR22Rv1, 144 h, 6 days, CCK-8, bound stated, read-out: IC50 against CWR22RV1 prostate cancer cells): < 500 nM |
| CC(=O)c1c(C)c2cnc(Nc3ccc(N4CCNCC4)cn3)nc2n(C2CCCC2)c1=O [palbociclib, reference compound] |  |  |  |  |  |  |  |  |  | IC50 (CWR22RV1 cells [2]; CWR22Rv1, administrated alone): 100 nM; IC50 (MCF-7 cells; MCF7, administrated alone): 12800 nM |
| CO[C@H]1CC[C@H](n2c([C@@H]3CCOCC(=O)N3c3ccc(F)c(F)c3)nc3cc(-c4c(C)noc4C)ccc32)CC1 [Compound 106] | 4.8 | 2.2 | 500 to 2000 |  |  |  |  |  |  |  |
| CCO[C@H]1CC[C@H](n2c([C@@H]3CCOC(=O)N3c3ccc(F)c(F)c3)nc3cc(-c4c(C)noc4C)ccc32)CC1 [Compound 171, (S)-3-(3,4-difluorophenyl)-4-(5-(3,5-dimethylisoxazol-4-yl)-1-((trans)-4-ethoxycyclohexyl)-1H-benzo[d]imidazol-2-yl)-1,3-oxazinane-2-one] | 1.8 | 2.4 | 500 to 2000 | < 500 | < 500 | < 500 | < 500 | < 500 | < 500 |  |
| CO[C@H]1C[C@@H](n2c([C@@H]3CCOC(=O)N3c3ccc(F)c(F)c3)nc3cc(-c4c(C)noc4C)ccc32)C1 [Compound 143] | 4.7 | 2.7 | 500 to 2000 |  |  |  |  |  |  |  |
| (S)-4-(3,4-difluorophenyl)-5-(5-(3,5-dimethylisoxazol-4-yl)-1-((trans)-4-deuteromethoxycyclohexyl)-1H-benzo[d]imidazol-2-yl)morphine-3-one [Compound 113] |  |  |  |  | < 500 |  |  |  |  | IC50 (CWR22RV1 cells [1]; 6 days, CCK-8, bound stated, read-out: IC50 against CWR22RV1 prostate cancer cells): < 500 nM; IC50 (CWR22RV1 cells [1]; 6 days, CCK-8, class symbols, read-out: IC50 against CWR22RV1 cells): < 500 nM; IC50 (VCAP): < 500 nM; IC50 (LNCAP): < 500 nM; IC50 (MOLM-16): < 500 nM; IC50 (MCF-7): < 500 nM; IC50 (OPM-2): < 500 nM |
| COc1cccc(-c2nc3cc(-c4c(C)noc4C)ccc3n2[C@H]2CC[C@H](OC)CC2)c1-c1ccc(F)cc1 [Compound 141] | 22 | 9.6 | > 2000 |  |  |  |  |  |  |  |
| CO[C@H]1CC[C@H](n2c([C@H]3COCC(=O)N3c3ccc(F)c(F)c3)nc3cc(-c4c(C)noc4C)ccc32)CC1 [Compound 112, (S)-4-(3,4-difluorophenyl)-5-(5-(3,5-dimethylisoxazol-4-yl)-1-((trans)-4-methoxycyclohexyl)-1H-benzo[d]imidazol-2-yl)morphine-3-one] | 2 | 1.7 |  |  |  |  |  |  |  | IC50 (CWR22RV1 cells [1]; CWR22Rv1, 144 h, read-out: IC50 against CWR22RV1 cells): < 500 nM; IC50 (CWR22RV1 cells [1]; CWR22Rv1, 144 h, read-out: IC50 against CWR22RV1 prostate cancer cells): < 500 nM |
| CCO[C@H]1CC[C@H](n2c([C@@H]3CCOC(=O)N3c3ccc(Cl)c(F)c3)nc3cc(-c4c(C)noc4C)ccc32)CC1 [Compound 172, (S)-3-(4-chloro-3-fluorophenyl)-4-(5-(3,5-dimethylisoxazol-4-yl)-1-((trans)-4-ethoxycyclohexyl)-1H-benzo[d]imidazol-2-yl)-1,3-oxazinane-2-one] | 2.3 | 2.1 | 500 to 2000 | < 500 | < 500 | < 500 | < 500 | < 500 | < 500 | IC50 (CWR22RV1 cells [2]; CWR22Rv1, 172 in combination with 10 nM palbociclib): 26 nM; IC50 (CWR22RV1 cells [2]; CWR22Rv1, 172 in combination with 100 nM palbociclib): < 1 nM; IC50 (CWR22RV1 cells [2]; CWR22Rv1, 172 in combination with 100-300 nM of palbociclib): < 1 nM; IC50 (CWR22RV1 cells [2]; CWR22Rv1, administrated alone): 1500 nM; effect of combination with palbociclib on CWR22RV1 prostate cancer cells (CWR22RV1 cells [2]; [4]): synergistic inhibitory effect; IC50 (MCF-7 cells; MCF7, 172 in combination with 10 nM palbociclib): 27 nM; IC50 (MCF-7 cells; MCF7, 172 in combination with 100 nM palbociclib): 9 nM; IC50 (MCF-7 cells; MCF7, 172 in combination with 300 nM palbociclib): 7 nM; IC50 (MCF-7 cells; MCF7, 172 in combination with 100-300 nM of palbociclib): < 10 nM; IC50 (MCF-7 cells; MCF7, administrated alone): 72 nM; effect of combination with palbociclib on MCF-7 breast cancer cells (MCF-7 cells; [4]): synergistic inhibitory effect |
